Measured values from PubChem BioAssay (NCI).
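Values below derive from 48-hour exposures of cells grown in 96-well plates, with endpoints linearly interpolated between the two concentrations bracketing the appropriate inhibition level. GI50 = concentration required for 50% inhibition of growth. The concentration for full growth arrest is given as TGI.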

How the values were obtained:
Test in all cases: NCI tumour cell line growth inhibition, 48 h
[1] = test system: 786-0 renal
[2] = test system: A498 renal
[3] = test system: A549 NSCLC
[4] = test system: ACHN renal
[5] = test system: BT-549 breast
[6] = test system: CAKI-1 renal
[7] = test system: CCRF-CEM leukemia
[8] = test system: COLO 205 colon
[9] = test system: DU-145 prostate
[10] = test system: EKVX NSCLC
[11] = test system: HCC-2998 colon
[12] = test system: HCT-116 colon
[13] = test system: HCT-15 colon
[14] = test system: HL-60(TB) leukemia
[15] = test system: HOP-62 NSCLC
[16] = test system: HOP-92 NSCLC
[17] = test system: HS 578T breast
[18] = test system: HT29 colon
[19] = test system: IGROV1 ovarian
[20] = test system: K-562 leukemia
[21] = test system: KM12 colon
[22] = test system: LOX IMVI melanoma
[23] = test system: M14 melanoma
[24] = test system: MALME-3M melanoma
[25] = test system: MCF7 breast
[26] = test system: MDA-MB-231 breast
[27] = test system: MDA-MB-435
[28] = test system: MOLT-4 leukemia
[29] = test system: NCI-H226 lung
[30] = test system: NCI-H23 lung
[31] = test system: NCI-H460 lung
[32] = test system: NCI-H522 lung
[33] = test system: NCI/ADR-RES ovarian
[34] = test system: OVCAR-3 ovarian
[35] = test system: OVCAR-4 ovarian
[36] = test system: OVCAR-5 ovarian
[37] = test system: OVCAR-8 ovarian
[38] = test system: PC-3 prostate
[39] = test system: RPMI-8226 leukemia
[40] = test system: RXF 393 renal
[41] = test system: SF-268 CNS
[42] = test system: SF-295 CNS
[43] = test system: SF-539 CNS
[44] = test system: SK-MEL-2 melanoma
[45] = test system: SK-MEL-28 melanoma
[46] = test system: SK-MEL-5 melanoma
[47] = test system: SK-OV-3 ovarian
[48] = test system: SN12C renal
[49] = test system: SNB-19 CNS
[50] = test system: SNB-75 CNS
[51] = test system: SR leukemia
[52] = test system: SW-620 colon
[53] = test system: T-47D breast
[54] = test system: TK-10 renal
[55] = test system: U251 CNS
[56] = test system: UACC-257 melanoma
[57] = test system: UACC-62 melanoma
[58] = test system: UO-31 renal

`COC(=O)Cn1c2c(c3c(O)cccc31)C(=O)c1ccccc1-2` showed a GI50 [1] greater than 100 µM, a TGI [1] greater than 100 µM and a GI50 [2] greater than 100 µM. It also gave a TGI [2] greater than 100 µM, a GI50 [3] greater than 100 µM and a TGI [3] greater than 100 µM. It also gave a GI50 [4] greater than 100 µM, a TGI [4] greater than 100 µM and a GI50 [5] greater than 100 µM. For the same molecule, the TGI [5] was greater than 100 µM, the GI50 [6] was greater than 100 µM and the TGI [6] was greater than 100 µM. It also gave a GI50 [7] greater than 100 µM, a TGI [7] greater than 100 µM and a GI50 [8] greater than 100 µM. For the same molecule, the TGI [8] was greater than 100 µM, the GI50 [9] was greater than 100 µM and the TGI [9] was greater than 100 µM. The GI50 [10] was greater than 100 µM, the TGI [10] was greater than 100 µM and the GI50 [11] was greater than 100 µM. The TGI [11] was greater than 100 µM, the GI50 [12] was greater than 100 µM and the TGI [12] was greater than 100 µM. It also gave a GI50 [13] greater than 100 µM, a TGI [13] greater than 100 µM and a GI50 [14] greater than 100 µM. The TGI [14] was greater than 100 µM, the GI50 [15] was greater than 100 µM and the TGI [15] was greater than 100 µM. The GI50 [16] was 27 µM, the TGI [16] was greater than 100 µM and the GI50 [17] was greater than 100 µM. It also gave a TGI [17] greater than 100 µM, a GI50 [18] greater than 100 µM and a TGI [18] greater than 100 µM. The GI50 [19] was greater than 100 µM, the TGI [19] was greater than 100 µM and the GI50 [20] was greater than 100 µM. The TGI [20] was greater than 100 µM, the GI50 [21] was greater than 100 µM and the TGI [21] was greater than 100 µM. The GI50 [22] was greater than 100 µM, the TGI [22] was greater than 100 µM and the GI50 [23] was greater than 100 µM. It also gave a TGI [23] greater than 100 µM, a GI50 [24] greater than 100 µM and a TGI [24] greater than 100 µM. The GI50 [25] was greater than 100 µM, the TGI [25] was greater than 100 µM and the GI50 [26] was 40.4 µM. The TGI [26] was greater than 100 µM, the GI50 [27] was greater than 100 µM and the TGI [27] was greater than 100 µM. The GI50 [28] was greater than 100 µM, the TGI [28] was greater than 100 µM and the GI50 [29] was greater than 100 µM. It also gave a TGI [29] greater than 100 µM, a GI50 [30] greater than 100 µM and a TGI [30] greater than 100 µM. The GI50 [31] was greater than 100 µM, the TGI [31] was greater than 100 µM and the GI50 [32] was greater than 100 µM. It also gave a TGI [32] greater than 100 µM, a GI50 [33] greater than 100 µM and a TGI [33] greater than 100 µM. The GI50 [34] was greater than 100 µM, the TGI [34] was greater than 100 µM and the GI50 [35] was greater than 100 µM. It also gave a TGI [35] greater than 100 µM, a GI50 [36] greater than 100 µM and a TGI [36] greater than 100 µM. For the same molecule, the GI50 [37] was greater than 100 µM, the TGI [37] was greater than 100 µM and the GI50 [38] was greater than 100 µM. The TGI [38] was greater than 100 µM, the GI50 [39] was greater than 100 µM and the TGI [39] was greater than 100 µM. The GI50 [40] was greater than 100 µM, the TGI [40] was greater than 100 µM and the GI50 [41] was greater than 100 µM. For the same molecule, the TGI [41] was greater than 100 µM, the GI50 [42] was greater than 100 µM and the TGI [42] was greater than 100 µM. It also gave a GI50 [43] greater than 100 µM, a TGI [43] greater than 100 µM and a GI50 [44] greater than 100 µM. The TGI [44] was greater than 100 µM, the GI50 [45] was greater than 100 µM and the TGI [45] was greater than 100 µM. The GI50 [46] was greater than 100 µM, the TGI [46] was greater than 100 µM and the GI50 [47] was greater than 100 µM. The TGI [47] was greater than 100 µM, the GI50 [48] was greater than 100 µM and the TGI [48] was greater than 100 µM. It also gave a GI50 [49] greater than 100 µM, a TGI [49] greater than 100 µM and a GI50 [50] greater than 100 µM. For the same molecule, the TGI [50] was greater than 100 µM, the GI50 [51] was 28.8 µM and the TGI [51] was greater than 100 µM. The GI50 [52] was greater than 100 µM, the TGI [52] was greater than 100 µM and the GI50 [53] was greater than 100 µM. For the same molecule, the TGI [53] was greater than 100 µM, the GI50 [54] was 45.4 µM and the TGI [54] was greater than 100 µM. It also gave a GI50 [55] of 79.2 µM, a TGI [55] greater than 100 µM and a GI50 [56] greater than 100 µM. The TGI [56] was greater than 100 µM, the GI50 [57] was greater than 100 µM and the TGI [57] was greater than 100 µM. It also gave a GI50 [58] greater than 100 µM and a TGI [58] greater than 100 µM.
`CN(C)c1ccc(/C=C\c2cccc[n+]2C)cc1` showed a GI50 [1] of 16.3 µM, a TGI [1] greater than 100 µM and a GI50 [2] of 2.53 µM. The TGI [2] was 33.7 µM, the GI50 [3] was 1.73 µM and the TGI [3] was greater than 100 µM. It also gave a GI50 [4] of 43 µM, a TGI [4] greater than 100 µM and a GI50 [5] of 2.76 µM. The TGI [5] was 79.8 µM, the GI50 [6] was 3.8 µM and the TGI [6] was greater than 100 µM. For the same molecule, the GI50 [7] was 4.54 µM, the TGI [7] was greater than 100 µM and the GI50 [8] was 1.22 µM. It also gave a TGI [8] of 2.81 µM, a GI50 [9] of 20.6 µM and a TGI [9] greater than 100 µM. It also gave a GI50 [10] of 0.489 µM, a TGI [10] greater than 100 µM and a GI50 [11] of 3.68 µM. For the same molecule, the TGI [11] was 39.2 µM, the GI50 [12] was 4.16 µM and the TGI [12] was greater than 100 µM. The GI50 [13] was 92.8 µM, the TGI [13] was greater than 100 µM and the GI50 [14] was 3.09 µM. It also gave a TGI [14] greater than 100 µM, a GI50 [15] of 5.83 µM and a TGI [15] of 90.7 µM. For the same molecule, the GI50 [16] was 4.85 µM, the TGI [16] was 32.8 µM and the GI50 [17] was 16.2 µM. For the same molecule, the TGI [17] was greater than 100 µM, the GI50 [18] was 5.01 µM and the TGI [18] was greater than 100 µM. It also gave a GI50 [19] of 8.66 µM, a TGI [19] greater than 100 µM and a GI50 [20] of 2.22 µM. The TGI [20] was greater than 100 µM, the GI50 [21] was 0.821 µM and the TGI [21] was 13.4 µM. It also gave a GI50 [22] of 5.31 µM, a TGI [22] of 36.6 µM and a GI50 [23] of 10.7 µM. For the same molecule, the TGI [23] was greater than 100 µM, the GI50 [24] was 15.6 µM and the TGI [24] was greater than 100 µM. For the same molecule, the GI50 [25] was 4.52 µM, the TGI [25] was greater than 100 µM and the GI50 [26] was 13.7 µM. For the same molecule, the TGI [26] was 93.2 µM, the GI50 [27] was 4.16 µM and the TGI [27] was greater than 100 µM. The GI50 [28] was 38.4 µM, the TGI [28] was greater than 100 µM and the GI50 [29] was 12.2 µM. The TGI [29] was greater than 100 µM, the GI50 [30] was 4.69 µM and the TGI [30] was greater than 100 µM. The GI50 [31] was 15.2 µM, the TGI [31] was greater than 100 µM and the GI50 [32] was 10.2 µM. For the same molecule, the TGI [32] was greater than 100 µM, the GI50 [33] was greater than 100 µM and the TGI [33] was greater than 100 µM. It also gave a GI50 [34] of 3.3 µM, a TGI [34] of 30.1 µM and a GI50 [35] of 4.28 µM. The TGI [35] was 62.5 µM, the GI50 [36] was 19.2 µM and the TGI [36] was greater than 100 µM. The GI50 [37] was 4.13 µM, the TGI [37] was greater than 100 µM and the GI50 [38] was 3.04 µM. The TGI [38] was greater than 100 µM, the GI50 [39] was 4.44 µM and the TGI [39] was 45.2 µM. The GI50 [40] was 18.2 µM, the TGI [40] was greater than 100 µM and the GI50 [41] was 5.52 µM. It also gave a TGI [41] greater than 100 µM, a GI50 [42] of 4.33 µM and a TGI [42] greater than 100 µM. For the same molecule, the GI50 [43] was 12.3 µM, the TGI [43] was greater than 100 µM and the GI50 [44] was 20.4 µM. It also gave a TGI [44] greater than 100 µM, a GI50 [45] of 14.8 µM and a TGI [45] of 81.7 µM. It also gave a GI50 [46] of 2.99 µM, a TGI [46] of 11.6 µM and a GI50 [47] of 4.85 µM. The TGI [47] was 52 µM, the GI50 [48] was 17 µM and the TGI [48] was greater than 100 µM. For the same molecule, the GI50 [49] was 4.83 µM, the TGI [49] was greater than 100 µM and the GI50 [50] was 6.26 µM. The TGI [50] was 49.5 µM, the GI50 [51] was 24.8 µM and the TGI [51] was greater than 100 µM. The GI50 [52] was 3.57 µM, the TGI [52] was greater than 100 µM and the GI50 [53] was 4.37 µM. The TGI [53] was 65.5 µM, the GI50 [54] was 41.1 µM and the TGI [54] was greater than 100 µM. It also gave a GI50 [55] of 4.89 µM, a TGI [55] greater than 100 µM and a GI50 [56] of 7.81 µM. For the same molecule, the TGI [56] was greater than 100 µM, the GI50 [57] was 19.8 µM and the TGI [57] was 58 µM. The GI50 [58] was 6.43 µM and the TGI [58] was greater than 100 µM.
